Test results reported in ChEMBL document CHEMBL5376010, “Formation of Trideuteromethylated Artifacts of Pyrrole-Containing Natural Products” (J Nat Prod, 2024).
Blank lines part the entries; values can stand above or below the compound they belong to. Calls of active or inactive are those of the source. The rule behind the calls is not given here.

Columns and labels:
[1] = system: Panel NCI-60 (60 carcinoma cell lines); assay: Anticancer activity against human Panel NCI-60 (60 carcinoma cell lines) assessed as growth inhibition; type: functional
[2] = system: Panel NCI-60 (60 carcinoma cell lines); assay: Anticancer activity against human Panel NCI-60 (60 carcinoma cell lines) assessed as cell growth inhibition at 10 uM; type: functional, cell-based
Homo sapiens [3] = species on record: Homo sapiens; assay: Selectivity ratio of IC50 for human HaCaT cells to IC50 for human WaGa cells; conditions: tested as the 2H-labelled form
Homo sapiens [4] = species on record: Homo sapiens; assay: Selectivity ratio of IC50 for human HaCaT cells to IC50 for human UISO cells; conditions: tested as the 2H-labelled form
Homo sapiens [5] = species on record: Homo sapiens; assay: Selectivity ratio of IC50 for human HaCaT cells to IC50 for human MCC26 cells; conditions: tested as the 2H-labelled form
Homo sapiens [6] = species on record: Homo sapiens; assay: Selectivity ratio of IC50 for human HaCaT cells to IC50 for human MKL-1 cells; conditions: tested as the 2H-labelled form
Homo sapiens [7] = species on record: Homo sapiens; assay: Selectivity ratio of IC50 for human HaCaT cells to IC50 for human MCC13 cells; conditions: tested as the 2H-labelled form
[8] = Anticancer activity against human MCC13 cells assessed as inhibition of cell growth; type: functional, cell-based
[9] = Cytotoxicity against human HaCaT cells assessed as inhibition of cell growth; type: toxicity, cell-based
[10] = Anticancer activity against human MKL-1 cells assessed as inhibition of cell growth; type: functional, cell-based
[11] = Anticancer activity against human UISO cells assessed as inhibition of cell growth; type: functional, cell-based
[12] = Anticancer activity against human WaGa cells assessed as inhibition of cell growth; type: functional, cell-based
[13] = Anticancer activity against human MCC26 cells assessed as inhibition of cell growth; type: functional, cell-based

SMILES: O=C1C(Br)=CC2(C=C1Br)CCNC1=C2C2=NCCc3c(Br)[nH]c(c32)C1=O
GI50 [1]: 0.42 µM

SMILES: Cc1[nH]c2c3c1CC[N+]1=C3C3=C(N[C@@H]4C[C@@]35C(=CC(=O)[C@@H]1[C@@H]5Sc1ncn(C)c1C[C@H](N)C(=O)O)S4)C2=O
Activity ([2]; tested as the 2H-labelled form): inactive

SMILES: O=C1C2=C3C4=[N+](CCc5c[nH]c1c54)[C@@H]1C(=O)C=C4S[C@@H](C[C@@]43[C@H]1O)N2 [DISCORHABDIN L]
GI50 [1]: 0.79 µM

Ratio IC50 (Homo sapiens [3]): 13
Ratio IC50 (Homo sapiens [4]): 3
Ratio IC50 (Homo sapiens [5]): 3
Ratio IC50 (Homo sapiens [6]): 13
Ratio IC50 (Homo sapiens [7]): 3
SMILES: Cc1[nH]c2c3c1CC[N+]1=C3C3=C(N[C@@H]4C[C@@]35C(=CC(=O)[C@@H]1[C@@H]5O)S4)C2=O
GI50 [1]: 5.75 µM

SMILES: O=C1C(Br)=CC2(C=C1Br)CCNC1=C2C2=NCCc3c[nH]c(c32)C1=O [DISCORHABDIN C]
GI50 [1]: 0.13 µM

SMILES: O=C([O-])C(F)(F)F.[2H]C([2H])([2H])c1[nH]c2c3c1CC[N+]1=C3C3=C(N[C@@H]4C[C@@]35C(=CC(=O)[C@@H]1[C@@H]5O)S4)C2=O
IC50 [8]: 2.5 µM
IC50 [9]: 6.2 µM
IC50 [10]: 0.25 µM
IC50 [11]: 1.41 µM
IC50 [12]: 0.72 µM
IC50 [13]: 1.99 µM
GI50 [1]: 1.65 µM

SMILES: Cn1cnc(S[C@H]2[C@H]3C(=O)C=C4S[C@H]5C[C@]42C2=C(N5)C(=O)c4[nH]cc5c4C2=[N+]3CC5)c1C[C@H](N)C(=O)O
Activity [2]: inactive
